These results are taken from PubChem BioAssay AID1054 (Sanford-Burnham Center for Chemical Genomics, 2008).

The assay has as its target Dual specificity protein phosphatase 6 (Rattus norvegicus) (UniProt Q64346). The assay can be described thus: redox-state modulators of MKP-3 activity, biochemical, rat enzyme, secondary assay (AID 1054). The conditions noted are these: recombinant MKP-3 phosphatase activity.

Activity calls are given as the source filed them. The rule behind the calls is not given here. A value given as a limit tells only on which side of the number the result lay.

Dual specificity protein phosphatase 6 (Rattus norvegicus), sequence (Q64346 whole entry, looked up): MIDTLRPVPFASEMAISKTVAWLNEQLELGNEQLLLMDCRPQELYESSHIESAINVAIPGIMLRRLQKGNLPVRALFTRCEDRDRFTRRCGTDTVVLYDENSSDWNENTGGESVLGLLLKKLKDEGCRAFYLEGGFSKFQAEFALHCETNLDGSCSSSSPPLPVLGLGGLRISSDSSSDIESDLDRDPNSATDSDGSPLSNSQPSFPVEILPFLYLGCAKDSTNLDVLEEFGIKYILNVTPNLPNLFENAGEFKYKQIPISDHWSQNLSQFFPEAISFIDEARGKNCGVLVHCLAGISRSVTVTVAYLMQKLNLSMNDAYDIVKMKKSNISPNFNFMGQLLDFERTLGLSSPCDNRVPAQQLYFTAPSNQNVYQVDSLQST

As for `Cc1cc(NC(=O)/C=C/c2cccs2)no1`, the IC50 was > 100 µM (inactive). As to `NS(=O)(=O)c1ccc2c(c1)C1C=CCC1C(C(=O)O)N2` (configuration not stated), the IC50 is > 100 µM (inactive). For `CCOC(=O)C1Nc2c(OC)cccc2C2OCCC12` (configuration not stated), the IC50 was > 100 µM (inactive). Consider `O=C(O)C1Nc2c(Cl)cc(Cl)c(Cl)c2C2C=CCC12` (configuration not stated), for which the IC50 is 12 µM.

For `Cc1cc(O)c2c(c1)C1C=CCC1C(C(=O)O)N2` (configuration not stated), the IC50 was > 100 µM (inactive). For `COc1cc(C(=S)N2CCCC2)ccc1O`, the IC50 is > 100 µM (inactive). On to `Clc1cccc(Cl)c1COc1nnc(-c2cccs2)c(-c2cccs2)n1`, for which the IC50 is > 100 µM (inactive). `Cc1cc2nc3s/c(=C/c4ccc(-c5ccccc5C(=O)O)o4)c(=O)n3c2cc1C`: the half-inhibitory concentration (IC50) was 14.8 µM. In the case of `O=C(O)C1Nc2cc(C(F)(F)F)ccc2S(=O)(=O)N1` (configuration not stated), the IC50 was > 100 µM (inactive). Consider `COc1cc(C(=S)NCc2ccc(O)cc2)ccc1O`, for which the IC50 was 16.1 µM. Take `CC(C)CNc1nc(=O)n(-c2ccc(F)cc2)c(=O)[nH]1`: the IC50 was > 100 µM (inactive). Regarding `O=C(O)C1Nc2c(cccc2C(F)(F)F)C2C=CCC12` (configuration not stated), the IC50 is 7.72 µM. On to `CCCCCCn1c(=O)nc(NCc2ccccc2OC)[nH]c1=O`, for which the IC50 is > 100 µM (inactive).

As for `Cc1ccc2c(nc3s/c(=C\c4ccc(-c5ccccc5C(=O)O)o4)c(=O)n32)c1C`, the IC50 was 21.6 µM.

As to `CCCCCCCCCCCCCCCCCCC=CCCCCCC(=O)O`, the IC50 is > 100 µM (inactive).

Regarding `CCOC(=O)C1=C(C)N=c2s/c(=C\c3cc(Cl)c(OCC(=O)O)c(Cl)c3)c(=O)n2C1c1cccc(OC)c1` (configuration not stated), the IC50 is 9.64 µM. The value for `Cc1cc(C)c2c(c1)NC(C(=O)O)C1CC=CC21` (configuration not stated) was 46.1 µM; that for `O=C(Oc1ccc(-c2ccccc2)cc1)c1cccc2c1NC(C(=O)O)C1CC=CC21` (configuration not stated) was 3.5 µM.

In the case of `CCCn1c(=O)nc(NCc2ccc(C)cc2)[nH]c1=O`, the IC50 was > 100 µM (inactive). Consider `CC1=C(C(=O)OC(C)C)C(c2ccc(Cl)cc2)n2c(sc(=Cc3ccc(OCC(=O)O)cc3)c2=O)=N1` (configuration not stated), for which the half-maximal inhibitory concentration (IC50) was 10.1 µM. As for `CCCCCCCCCCCCCCCCCCC#CCCCCCCCCCCC(=O)O`, the IC50 was > 100 µM (inactive). The value for `CCn1c(=O)n(Cc2ccc(N(O)O)cc2)c(=O)n([C@@H](Cc2ccccc2)C(=O)O)c1=O` was > 100 µM (inactive); that for `COc1cc(C(=S)NC2CCCCC2)ccc1O` was 6.35 µM. Turning to `Cc1cc(C)c2nc3s/c(=C\c4ccc(-c5ccccc5C(=O)O)o4)c(=O)n3c2c1`, the IC50 is 11.7 µM.

`CCn1c(=O)n(C)c(=O)n([C@@H](Cc2ccccc2)C(N)=O)c1=O`: the IC50 is > 100 µM (inactive).

Regarding `CCCCCCCCCCCCCCCCCCC#CCCCCCCCCCCCC(=O)O`, the IC50 was > 100 µM (inactive).

As for `O=C(O)C1Nc2c(I)cccc2C2C=CCC12` (configuration not stated), the IC50 is > 100 µM (inactive).

Regarding `COc1cc(C(=S)NCc2ccc(Cl)c(C)c2)ccc1O`, the 50% inhibitory concentration (IC50) was 10.5 µM.

Turning to `C#CCCCCCCCCCCCCCCCCCC`, the IC50 is > 100 µM (inactive).

Consider `COc1ccc(-n2c(=O)nc(NCCc3cccc(Cl)c3)[nH]c2=O)cc1`, for which the IC50 was > 100 µM (inactive). For the compound `CCOC(=O)C1Nc2c(O)cc(C)cc2C2C=CCC12` (configuration not stated), the IC50 is > 100 µM (inactive). Consider `CCn1c(SCC(=O)O)nc2sc3c(c2c1=O)CCCC3`, for which the IC50 is > 100 µM (inactive).
